Consider four compounds from patent US10925887B2, “Steroid saponins with anti-cancer activity” (Oncology Research International Limited, priority 2017, dated 2021).

Holding throughout (format): cell-based
The subject of one data set is HCT 116. The experiment in a line: CellTiter-Blue cell growth inhibition assay, HCT 116. The settings on record: Homo sapiens, HCT-116, 48 h. The procedure: (§1) Duplicate experiments were performed using the CellTiter-Blue® Cell Viability Assay to determine IC50 values for Compound A, Compound B and Compound C against each cell line. The general methodology for preparation of test articles described in Example 6 was used. The test compounds compound A, compound C disodium salt and compound B ½ maleate salt were initially formulated as 100× stock solutions at a concentration of 10 mg/mL in the appropriate diluents (DMSO for compounds). These stock solutions were then further diluted in cell culture medium to achieve lower concentrations of 100, 50, 25, 12.5, 6.25 and 3.125, 1.563, 0.781, 0.390 and 0.195 μM of active component. The specific cancer cells were A549, HCT 116, MCF-7 and MIA PaCa-2.
(§2) Human cancer cell types were: HTC-116 (colon); A549 (Lung); HT29 (colon); MCF-7; Mia PaCa-2 (pancreas)
(§3) Cells were seeded in duplicate at 3-4,000 per microtitre well in 50 μl of cell culture medium . After 24 hours, 50 μL of test article or vehicle control prepared in medium at 2× required concentration were added to each well. Cancer cells were allowed to grow in the presence of drug for 48 hours before cell growth relative to untreated control wells was determined with CellTiter-Blue® Cell Viability Assay.
(§4) IC50 values were calculated using Prism 6 for Mac OS X using a nonlinear regression (log(inhibitor) vs. response—Variable slope (four parameters)

Data set [1] has as its system washed human erythrocytes. The experiment in a line: in vitro haemolysis assay. The settings on record: for HD50 (50% haemolytic dose): washed human erythrocytes, 3 hours at 37° C. The procedure: Haemolysis is a clinical condition where the red cell membrane is irreversibly damaged causing the release of its haemoglobin content. The in vitro haemolysis assay is a simple test to determine the haemolytic potential of a test substance on isolated and washed red blood cells.
In this example three compounds identified as compound A, compound C disodium salt and compound B ½ maleate salt and Saponin from Quillaja bark (S4521) were tested for haemolytic potential using washed human erythrocytes. The compounds were tested over a dose curve with a maximum concentration of […] and a lowest concentration of […]. The concentration range is […].
Briefly, whole blood (40 mL) was collected from a single human volunteer into multiple EDT vacutainer tubes. The red blood cells (RBC) were washed and isolated from plasma components by three centrifugations at 3000 rpm for 5 minutes in isotonic 0.9% sodium chloride. After the final wash, 0.1 mL volumes of red blood cells were added to each treatment tube.
The test compounds compound A, compound C disodium salt and compound B % maleate salt and the reference article (Saponin S4521) were initially formulated as 100× stock solutions at a concentration of 10 mg/mL in the appropriate diluents (DMSO for compounds, 0.9% NaCl for Saponin S4521). These stock solutions were then further diluted 1:100 in 0.9% NaCl to prepare the highest concentration of […] in 1% DMSO/NaCl. The highest concentration solutions were further diluted serially 1:2 in 1% DMSONaC1 to achieve lower concentrations of 50, 25, 12.5, 6.25, 3.125, 1.562 and 0.781 pg/ml of active component.
The positive control article (hypertonic solution of […]) was formulated by weighing 2.92 g NaCl in 10 mL MilliQ water. The negative control article (isotonic solution of 0.154M NaCl) was formulated on the day of use by dissolving 0.09 g NaCl into 10 mL MilliQ water. The vehicle used to dilute the test articles, 1% DMSO/NaCl, was used as the reagent blank in the assay.
Tubes containing cells and treatments were incubated at 37° C. with gentle agitation in an orbital mixer for 3 hours. At completion of the incubation, tubes were centrifuged at 3000 rpm for 5 minutes and 200 ptL aliquots of supernatant from each tube were transferred to a 96-well microplate for measurement of absorbance at 535 nm. A layout for the 96-Nell microplate is presented in Appendix 1. A 1% DMSO/NaCl vehicle in the absence of blood was used as the reagent blank in the assay.
Mean values for the negative (0.154M NaCl), positive (5M NaCl) and blank triplicate wells were determined. These were then used to calculate the % haemolysis for each sample according to the following formula: […]
Calculations of 50% haemolytic dose (HD50) was performed by non-linear regression analyses using a log(agonist) vs normalized response variable slope curve fit on GraphPad Prism for Mac OS X (Version 5.0c, GraphPad Software, California, USA).

For the next data set, the system named is MIA PaCa-2. The experiment in a line: CellTiter-Blue cell growth inhibition assay, MIA PaCa-2. As to conditions: Homo sapiens, MIA PaCa-2, 48 h. Here is the method: as §1, §2, §3, §4
In the next data set the test system is PC-3. The experiment in a line: CellTiter-Blue cell growth inhibition assay, PC-3. The settings on record: Homo sapiens, PC-3, 48 h.
The subject of a further data set is MCF-7. The experiment in a line: CellTiter-Blue cell growth inhibition assay, MCF-7. As to conditions: Homo sapiens, MCF7, 48 h. Here is the method:
as §1, §2, §3, §4

The test system of the next data set is A549. The experiment in a line: CellTiter-Blue cell growth inhibition assay, A549. As to conditions: Homo sapiens, A549, 48 h. The procedure: as §1, §2, §3, §4
Setting [2] is: HCT 116, Average ± SEM, 48 hours.
[3] abbreviates: HCT 116, Experiment 1, 48 hours.
The mark [4] stands for this setting: HCT 116, Experiment 2, 48 hours.
Where [5] appears, read: MIA PaCa-2, Average ± SEM, 48 hours.
[6] abbreviates: MIA PaCa-2, Experiment 1, 48 hours.
Where [7] appears, read: MIA PaCa-2, Experiment 2, 48 hours.

For the compound `CC1O[C@@H](OC2C(O)[C@H](O)C(CO)O[C@H]2O[C@H]2CC[C@@]3(C)C(=CC[C@H]4[C@@H]5C[C@@H]6O[C@]7(CC[C@@H](C)CO7)[C@@H](C)[C@@H]6[C@@]5(C)CC[C@@H]43)C2)C(O)C(O)[C@H]1O` (stereo partly drawn) [Compound A, diosgenyl α-L-rhamnopyranosyl-(1→2)-β-D-glucopyranoside, reference compound], the IC50 came out at 5.1 ± 0.08 µM in the data set with HCT 116 (setting [2]); 5.17 µM in the data set with HCT 116 (setting [3]); 5.02 µM in the data set on HCT 116 (setting [4]); 5.63 ± 0.55 µM with MIA PaCa-2 (setting [5]); 6.17 µM in the data set on MIA PaCa-2 (setting [6]); 5.08 µM in the data set with MIA PaCa-2 (setting [7]). For the same compound, the IC50 in the data set on PC-3 (PC-3, Average ± SEM, 48 hours) was determined as 6.14 ± 0.29 µM; in the data set on PC-3 (PC-3, Experiment 1, 48 hours), 6.42 µM; with PC-3 (PC-3, Experiment 2, 48 hours), 5.85 µM; in the data set on MCF-7 (MCF-7, Average ± SEM, 48 hours), 7.65 ± 0.27 µM; in the data set on MCF-7 (MCF-7, Experiment 1, 48 hours), 7.91 µM; with MCF-7 (MCF-7, Experiment 2, 48 hours), 7.38 µM. Further, the IC50 amounted to 4.17 ± 0.57 µM in the data set on A549 (A549, Average ± SEM, 48 hours); 4.74 µM in the data set with A549 (A549, Experiment 1, 48 hours); 3.6 µM with A549 (A549, Experiment 2, 48 hours). The percent haemolysis is listed as −0.3% in data set [1] (concentration 0.781 μg/ml); 0.5% in data set [1] (concentration 1.562 μg/ml); −0.1% in data set [1] (concentration 3.125 μg/ml); 3.2% in data set [1] (concentration 6.25 μg/ml); 13.4% in data set [1] (concentration 12.5 μg/ml); 36.0% in data set [1] (concentration 25 μg/ml). Further, the percent haemolysis was 86.7% in data set [1] (concentration 50 μg/ml) and 103.2% in data set [1] (concentration 100 μg/ml). For the same compound, in data set [1], the “HD50 (50% haemolytic dose)” value turned out to be 31.57 µg/mL.

In the case of `CC1O[C@@H](OC2C(O)[C@H](O)C(COC(=O)[C@@H](N)C(C)C)O[C@H]2O[C@H]2CC[C@@]3(C)C(=CC[C@H]4[C@@H]5C[C@@H]6O[C@]7(CC[C@@H](C)CO7)[C@@H](C)[C@@H]6[C@@]5(C)CC[C@@H]43)C2)C(O)C(O)[C@H]1O` (stereo partly drawn) [Compound B], the IC50 came to 12.4 ± 0.72 µM in the data set with HCT 116 (setting [2]); 11.7 µM in the data set on HCT 116 (setting [3]); 13.1 µM in the data set with HCT 116 (setting [4]); 9.39 ± 1.77 µM with MIA PaCa-2 (setting [5]); 11.2 µM in the data set with MIA PaCa-2 (setting [6]); 7.62 µM in the data set with MIA PaCa-2 (setting [7]). Moreover, the IC50 in the data set with PC-3 (PC-3, Average ± SEM, 48 hours) was found to be 11.7 ± 0.7 µM; in the data set with PC-3 (PC-3, Experiment 1, 48 hours), 12.4 µM; in the data set on PC-3 (PC-3, Experiment 2, 48 hours), 11 µM; with MCF-7 (MCF-7, Average ± SEM, 48 hours) it was 15 ± 0.32 µM; in the data set on MCF-7 (MCF-7, Experiment 1, 48 hours), 14.7 µM; in the data set on MCF-7 (MCF-7, Experiment 2, 48 hours) it was 15.3 µM. Also, the IC50 in the data set with A549 (A549, Average ± SEM, 48 hours) turned out to be 10.2 ± 0.31 µM; in the data set with A549 (A549, Experiment 1, 48 hours) it was 9.86 µM; in the data set on A549 (A549, Experiment 2, 48 hours) it was 10.5 µM.

As for `CC1O[C@@H](OC2C(O)[C@H](O)C(COP(=O)([O-])O)O[C@H]2O[C@H]2CC[C@@]3(C)C(=CC[C@H]4[C@@H]5C[C@@H]6O[C@]7(CC[C@@H](C)CO7)[C@@H](C)[C@@H]6[C@@]5(C)CC[C@@H]43)C2)C(O)C(O)[C@H]1O.[Na+]` (stereo partly drawn) [Compound C disodium salt], the percent haemolysis in data set [1] (concentration 0.781 μg/ml) is listed as 1.0%; in data set [1] (concentration 1.562 μg/ml), 1.9%; in data set [1] (concentration 3.125 μg/ml), 0.5%; in data set [1] (concentration 6.25 μg/ml), 1.6%; in data set [1] (concentration 12.5 μg/ml) it was 0.5%; in data set [1] (concentration 25 μg/ml) it was 1.8%. The percent haemolysis was determined as 2.9% in data set [1] (concentration 50 μg/ml) and 51.9% in data set [1] (concentration 100 μg/ml). For the same compound, in data set [1], the “HD50 (50% haemolytic dose)” value came to 145.70 µg/mL.

`CC1O[C@@H](OC2C(O)[C@H](O)C(COP(=O)(O)O)O[C@H]2O[C@H]2CC[C@@]3(C)C(=CC[C@H]4[C@@H]5C[C@@H]6O[C@]7(CC[C@@H](C)CO7)[C@@H](C)[C@@H]6[C@@]5(C)CC[C@@H]43)C2)C(O)C(O)[C@H]1O` (stereo partly drawn) [Compound C]: the IC50 came to 3.04 ± 1.05 µM with HCT 116 (setting [2]); 4.08 µM in the data set with HCT 116 (setting [3]); 1.99 µM in the data set with HCT 116 (setting [4]); 3.04 ± 0.49 µM with MIA PaCa-2 (setting [5]); 3.52 µM in the data set on MIA PaCa-2 (setting [6]); 2.55 µM in the data set with MIA PaCa-2 (setting [7]). Also, the IC50 with PC-3 (PC-3, Average ± SEM, 48 hours) was found to be 3.25 ± 1.07 µM; in the data set on PC-3 (PC-3, Experiment 1, 48 hours) it was 4.32 µM; in the data set with PC-3 (PC-3, Experiment 2, 48 hours), 2.18 µM; in the data set with MCF-7 (MCF-7, Average ± SEM, 48 hours), 4.17 ± 1.29 µM; in the data set on MCF-7 (MCF-7, Experiment 1, 48 hours) it was 5.45 µM; in the data set with MCF-7 (MCF-7, Experiment 2, 48 hours), 2.88 µM. Besides, the IC50 in the data set with A549 (A549, Average ± SEM, 48 hours) amounted to 2 ± 0.47 µM; in the data set with A549 (A549, Experiment 1, 48 hours), 2.46 µM; in the data set with A549 (A549, Experiment 2, 48 hours) it was 1.53 µM.
